Source: patent US20210052874A1, “ULTRASOUND DEVICE AND THERAPEUTIC METHODS” (priority 2011, published 2021)

Assay: In vitro transdermal delivery of carboxyfluorescein through mouse skin in a Franz diffusion cell, with or without low frequency ultrasound (LFUS)
Assay type: in vitro ADME
Settings: for Delivery Efficiency (% of CF delivered) / Enhancement Ratio v. free CF, no LFUS: mouse skin
Experimental: An in vitro study was performed to evaluate the ability of the present invention to enable transdermal delivery of substantially intact encapsulated drugs. The study involved applying low intensity, low pressure amplitude ultrasound waves to mouse skin in order to mediate transdermal delivery of liposome encapsulated carboxyfluorescein (CF), a hydrophilic dye. […] In this setup, an ultrasound applicator 10 having 4 transducers 12 arranged in a 2×2 array is supported by a custom fixture 80 and in direct communication with a Franz diffusion cell, including a donor compartment 82 filled with a liquid medium interspersed with liposome encapsulated CF and a sample mouse skin. Low frequency ultrasound waves (LFUS) having a low pressure amplitude of about 55 kPa, a low acoustic intensity of about 100 mW/cm^2 and a low frequency of about 17.9 kHz was generated by ultrasound applicator 10 and directed towards a mouse skin sample 84 positioned adjacent to donor compartment 82 for about 4 hours. The amount of liposome encapsulated CF that permeated mouse skin 84 and collected within a receptor compartment 86 surrounded by a water jacket 88 was examined and measured after about 4 hours of ultrasound application when the ultrasound source was turned off and again 8 hours after the start of the experiment. The liposomes were made from 1,2-dioleoyl-sn-glycerol-3-phosphocholine (DOPC), and the liposome encapsulated CF was prepared using the dehydration-rehydration technique described in Kirby, C. and G. Gregoriadis, “Dehydration rehydration vesicles: a simple method for high yield drug entrapment in liposome,” Nature Biotechnology, 1984, 2(11): p. 9′79-984, herein incorporated by reference. In this experiment, encapsulation efficiency of the CF was improved (about 10% to about 30% measured by titration) by minimizing the amount of rehydration buffer used, adjusting pH before rehydration to fully dissolve CF by minimizing the amount of rehydration buffer used, and by adjusting the pH to about 10 and subsequently adjusting the pH to about 7.4 before rehydration. The original encapsulation efficiency of CF was about 0.67% in 100 nm liposomes, using about 5.2 mg CF in the rehydration buffer (about 2.56 mM). […] Tests D1-D2 show the results for liposome encapsulated CF after exposure to 20 minutes of low frequency ultrasound stimulation. Tests E1-3 show the results for liposome encapsulated CF upon exposure to 4 hours of low frequency ultrasound stimulation.

Substance: carboxyfluorescein [Free CF]
- Delivery Efficiency (% of CF delivered) (4 hr simultaneous LFUS): 0.03%
- Enhancement Ratio v. free CF, no LFUS (4 hr simultaneous LFUS): 0.00
- Amount able to permeate the mouse skin (after 8 hours, not assisted by ultrasound): less than 0.005 M/M
- Delivery Efficiency (% of CF delivered) (no LFUS): 0.03%
- Enhancement Ratio v. free CF, no LFUS (no LFUS): 0.00
